Source: the supplement of paper PMC10307832

What was measured:
Experiment in all cases: relative viability (nuclei count vs DMSO), 5 days (fraction); higher = more cells survive
NCI-H520 = test system: NCI-H520
Method in brief: (§1)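 Lung cancer cell lines were pin-tool dosed in 1536-well plates on the day after seeding, with either a lone drug or a fixed anchor-drug dose plus five library-drug doses (not always all listed) in √10 steps. Nuclei were counted on 4× images after 5 days. Relative viability is the ratio of treated-well to vehicle-well nuclei counts, with each value a median of duplicate plates.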

NCI-H2405 = test system: NCI-H2405
Method in brief: as §1

NCI-H1650 = test system: NCI-H1650
Method in brief: as §1

LK-2 = test system: LK-2
Method in brief: as §1

RERF-LC-KJ = test system: RERF-LC-KJ
Method in brief: as §1

NCI-H2228 = test system: NCI-H2228
Method in brief: as §1

CAL-12T = test system: CAL-12T
Method in brief: as §1

H3255 = test system: H3255
Method in brief: as §1

HCC-15 = test system: HCC-15
Method in brief: as §1

HCC-827 = test system: HCC-827
Method in brief: as §1

NCI-H661 = test system: NCI-H661
Method in brief: as §1

CC1(C)CCC(c2ccc(Cl)cc2)=C(CN2CCN(c3ccc(C(=O)NS(=O)(=O)c4ccc(N[C@H](CCN5CCOCC5)CSc5ccccc5)c(S(=O)(=O)C(F)(F)F)c4)cc3)CC2)C1 [Navitoclax] + CC(=O)Nc1cccc(-n2c(=O)n(C3CC3)c(=O)c3c(Nc4ccc(I)cc4F)n(C)c(=O)c(C)c32)c1 [Trametinib] (partner 0.02 µM)
relative viability (NCI-H520; first compound 0.005 µM): 0.673
relative viability (NCI-H520; first compound 0.01581 µM): 0.653
relative viability (NCI-H520; first compound 0.05 µM): 0.631
relative viability (NCI-H520; first compound 0.1581 µM): 0.603
relative viability (NCI-H520; first compound 0.5 µM): 0.693
relative viability (NCI-H2405; first compound 0.005 µM): 0.535
relative viability (NCI-H2405; first compound 0.01581 µM): 0.75
relative viability (NCI-H2405; first compound 0.05 µM): 0.67
relative viability (NCI-H2405; first compound 0.1581 µM): 0.596
relative viability (NCI-H2405; first compound 0.5 µM): 0.661
relative viability (NCI-H1650; first compound 0.005 µM): 0.646
relative viability (NCI-H1650; first compound 0.01581 µM): 0.723
relative viability (NCI-H1650; first compound 0.05 µM): 0.489
relative viability (NCI-H1650; first compound 0.1581 µM): 0.439
relative viability (NCI-H1650; first compound 0.5 µM): 0.45
relative viability (LK-2; first compound 0.005 µM): 0.76
relative viability (LK-2; first compound 0.01581 µM): 0.868
relative viability (LK-2; first compound 0.05 µM): 0.922
relative viability (LK-2; first compound 0.1581 µM): 0.807
relative viability (LK-2; first compound 0.5 µM): 0.695
relative viability (RERF-LC-KJ; first compound 0.005 µM): 0.823
relative viability (RERF-LC-KJ; first compound 0.01581 µM): 0.847
relative viability (RERF-LC-KJ; first compound 0.05 µM): 0.969
relative viability (RERF-LC-KJ; first compound 0.1581 µM): 0.938
relative viability (RERF-LC-KJ; first compound 0.5 µM): 0.985
relative viability (NCI-H2228; first compound 0.005 µM): 0.476
relative viability (NCI-H2228; first compound 0.01581 µM): 0.802
relative viability (NCI-H2228; first compound 0.1581 µM): 0.511
relative viability (NCI-H2228; first compound 0.5 µM): 0.491
relative viability (CAL-12T; first compound 0.005 µM): 0.348
relative viability (CAL-12T; first compound 0.01581 µM): 0.373
relative viability (CAL-12T; first compound 0.05 µM): 0.351
relative viability (CAL-12T; first compound 0.1581 µM): 0.331
relative viability (CAL-12T; first compound 0.5 µM): 0.311
relative viability (H3255; first compound 0.005 µM): 0.529
relative viability (H3255; first compound 0.01581 µM): 0.7
relative viability (H3255; first compound 0.05 µM): 0.612
relative viability (H3255; first compound 0.1581 µM): 0.59
relative viability (H3255; first compound 0.5 µM): 0.582
relative viability (HCC-15; first compound 0.005 µM): 0.329
relative viability (HCC-15; first compound 0.01581 µM): 0.432
relative viability (HCC-15; first compound 0.05 µM): 0.332
relative viability (HCC-15; first compound 0.1581 µM): 0.401
relative viability (HCC-15; first compound 0.5 µM): 0.35
relative viability (HCC-827; first compound 0.005 µM): 0.528
relative viability (HCC-827; first compound 0.01581 µM): 0.567
relative viability (HCC-827; first compound 0.05 µM): 0.446
relative viability (HCC-827; first compound 0.1581 µM): 0.514
relative viability (HCC-827; first compound 0.5 µM): 0.55
relative viability (NCI-H661; first compound 0.005 µM): 0.516
relative viability (NCI-H661; first compound 0.01581 µM): 0.702
